Test results taken from patent US20180064829A1, “FLUORESCENT BISPHOSPHONATE ANALOGS” (University of Southern California, priority 2015, published 2018).

Legend:
[1] = UV-VIS absorption and fluorescence emission spectra; type: physicochemical; conditions: 0.1M phosphate buffer (1x PBS for 7d5); ± 1 nm error
[2] = tested on: unprenylated Rap1A (uRap1A); assay: Prenylation assay: Western blot for unprenylated Rap1A in J774.2 macrophages; type: cell-based, mouse; conditions: 10 or 100 μM, 24 h, FIG. 5A-C
[3] = pH 7.2, 0.1M phosphate buffer; assumed the same as the corresponding fluorescent dye; cited from earlier work
bone resorption = conditions: rat model in vivo, ref. [15a]; cited from earlier work
[4] = pKa and protonation status of the heterocyclic nitrogen; type: physicochemical; conditions: pH 6.0; calculated by Henderson-Hasselbalch equation
From the text: The nucleophilicity and Lewis basicity of the nitrogen atom of the three heterocyclic N-BPs studied in this report vary, and these properties appear to be the major determinants of their conjugation reactivity. Thus, the ‘magic linker’ methodology for RIS required modification for ZOL (1d), MIN (1e), and their related analogues (1f). […] The protonation status of the heteroatom at different pH is also critical to the reactivity. […] Under such conditions, more than 50% (˜71.3% calculated) of the nitrogen of RIS will be deprotonated, and able to attack the epoxide ring nucleophilically. However, at pH 6.0, only 18% of the nitrogen of ZOL (22% for MIN) is deprotonated, thus the reactions were very slow (2d) at pH 6.0. At pH 7.0-7.5, reaction was more rapid, but the regioselectivity (N-alkylation vs. O-alkylation) for 1d, 1e, 1f was not as good as for RIS and its analogues (1a, 1b, 1c); 10-20% of side products could be observed, which were confirmed by HPLC, NMR and MS to be the products of N,O(P)-dialkylation (O-alkylation occurs between the phosphonate/carboxylate group of the drug and the epoxide). The reaction rate of MinPC (1f)-epoxide (5) coupling was even slower than ZOL under the same reaction conditions (same reactant ratio, pH 7.5, 40-45° C.), which might be due to a steric effect from the large heterocycle. In addition, the percent of side products was higher and O-alkylation products were also observed in the reaction mixture.
The following publications are incorporated by reference herein in their entirety: • [1] a) R. G. G. Russell, N. B. Watts, F. H. Ebetino, M. J. Rogers, Osteoporos. Int. 2008, 19, 733-759; b) F. Ebetino, A. Hogan, S. Sun, M. Tsoumpra, X. Duan, J. Triffitt, A. Kwaasi, J. Dunford, B. Barnett, U. Oppermann, M. Lundy, A. Boyde, B. Kashemirov, C. McKenna, R. Russell, Bone 2011, 49 20-33. • [2] a) I. Reid, M. Bolland, A. Grey, Bone 2007, 41, 318-320; b) A. Siddiqi, A. Payne, S. Zafar, Oral Surg. Oral Med. Oral Pathol. Oral Radiol. Endod. […]

[5] = RIS; not covered by the MarvinSketch note; cited from earlier work
[6] = parent compounds, ref. [23]; cited from earlier work

| SMILES | Maximum absorption wavelength (λmax (abs), nm) [1] | Maximum emission wavelength (λmax (em), nm) [1] | accumulation of unprenylated Rap1A (anti-prenylation activity) [2] | Extinction coefficient [3] | Anti-resorptive activity (bone resorption) | fraction of the heterocyclic nitrogen deprotonated [4] | pKa of the heterocyclic nitrogen [5] | rank order of mineral binding affinity [6] |
| --- | --- | --- | --- | --- | --- | --- | --- | --- |
| O=C(NCC(O)C[n+]1ccn(CC(O)(P(=O)(O)O)P(=O)(O)O)c1)c1ccc(-c2c3ccc(=O)cc-3oc3cc(O)ccc23)c(C(=O)O)c1 (centres unmarked) [Compound 5-FAM-ZOL, 3-(3-(3-carboxy-4-(6-hydroxy-3-oxo-3H-xanthen-9-yl)benzamido)-2-hydroxypropyl)-1-(2-hydroxy-2,2-diphosphonoethyl)-1H-imidazol-3-ium] | 493 nm | 521 nm | retain some activity, although their potencies are weaker than native ZOL | 73,000 (pH 7.2) M^−1cm^−1 | demonstrated | – | – | – |
| O=P(O)(O)C(O)(Cc1cccnc1)P(=O)(O)O [RIS, (1-hydroxy-2-pyridin-3-ylethane-1,1-diyl)bis(phosphonic acid)] | – | – | – | – | – | ~71.3% | 5.67 | RIS>dRIS>RISPC |
